Key:
[1] = subchronic
[2] = subchronic, duration: 90 days, oral, diet

SMILES: c1csc(SSc2cccs2)c1 [2-Thienyl disulfide]
- NOAEL (Rattus norvegicus; [2]): 0.29 mg/kg-day

SMILES: CC(=O)c1ccnc(C)n1 [Ethanone, 1-(2-methyl-4-pyrimidinyl)-]
- NOAEL (Rattus norvegicus; subchronic, duration: 90 days, Sprague-Dawley): 1 mg/kg-day

SMILES: CCC(=O)c1nccs1 [2-Propionylthiazole]
- NOAEL (Rattus norvegicus; [2]): 50 mg/kg-day

SMILES: Cc1ccc2c(c1)OC(=O)C2C (stereo unspecified) [3,6-Dimethyl-1-benzofuran-2(3H)-one]
- NOAEL (Rattus norvegicus; subchronic, duration: 90 days, oral): 5.42 mg/kg-day

SMILES: CCCc1ccn(-c2ccccc2)n1 [1H-Pyrazole, 1-phenyl-3(or 5)-propyl-]
- NOAEL [1]: 25 mg/kg-day

SMILES: Cc1ncc2c(n1)CSC2 [5,7-Dihydro-2-methylthieno[3,4-d]pyrimidine]
- NOAEL (Rattus norvegicus; subchronic, duration: 90 days): 6.6 mg/kg-day

SMILES: CC(=O)c1nccs1 [2-Acetylthiazole]
- NOAEL (Rattus norvegicus; [2]): 50 mg/kg-day

SMILES: COc1cnc(C)s1 [Thiazole, 5-methoxy-2-methyl-]
- NOAEL ([1]; duration: 90 days): 8.6 mg/kg-day

SMILES: C[S+](C)CC[C@H](N)C(=O)O.[Cl-] [L-Methylmethionine sulfonium chloride]
- NOAEL (Rattus norvegicus; chronic, duration: 14 weeks, oral, diet, M/F, Wistar, no effects): 250 mg/kg-day

SMILES: COCCOC(C)OCc1ccccc1 (stereo unspecified) [{[1-(2-Methoxyethoxy)ethoxy]methyl}benzene]
- NOAEL (Rattus norvegicus; chronic): 6 mg/kg-day

SMILES: COCCO [Methoxyethanol]
- NOAEL (Rattus norvegicus; chronic): 6 mg/kg-day
